Measurements published in US8138167B2, “Methods for treating lung cancers” (Oncotherapy Science, Inc., priority 2006, dated 2012).
Read-outs that look alike come from different tables or passages of the source.

Experiments:
[1] = test system: progressive non-small-cell lung cancer; test: gefitinib therapy (250 mg/day) of 50 patients with progressive non-small-cell lung cancer, overall evaluation of tumor response
[2] = test system: lung cancer; conditions: cited from earlier work
[3] = test system: PC-9 cells; conditions: gefitinib-sensitive, amphiregulin-nonexpressing NSCLC line PC-9; upon autocrine secretion of amphiregulin; cited from earlier work
[4] = test system: advanced non-small-cell lung cancer; conditions: Japanese patients with advanced NSCLC treated since approval; cited from earlier work
[5] = 50 progressive NSCLC patients, gefitinib 250 mg/day, evaluation after four months
[6] = of 50 patients after gefitinib therapy

Structure (SMILES): COc1cc2ncnc(Nc3ccc(F)c(Cl)c3)c2cc1OCCCN1CCOCC1 [gefitinib, N-(3-chloro-4-fluorophenyl)-7-methoxy-6-(3-morpholinopropoxy)quinazolin-4-amine]
- disease control rate (CR+PR+SD/CR+PR+SD+PD) [1, 5]: 40.0%
- tumor response rate (CR+PR/CR+PR+SD+PD) [1, 5]: 16.0%
- patients classified as CR [1, 6]: none
- patients classified as PD [1, 6]: 30 patients
- patients classified as PR [1, 6]: eight
- patients classified as SD [1, 6]: 12 patients
- median survival time ([2]; adenocarcinoma patients, gefitinib arm (placebo […])): 6.3 months
- median survival time ([2]; all parent populations, gefitinib arm (placebo 5.1)): 5.6 months
- antitumor activity of gefitinib on PC-9 cells [3]: dramatically reduced
- patients showing no improvement in symptoms [4]: 60%
